These results are taken from ChEMBL document CHEMBL4311955, “HIV-1 Protease Inhibitors Incorporating Stereochemically Defined P2' Ligands To Optimize Hydrogen Bonding in the Substrate Envelope” (J Med Chem, 2019).

Assay [1] can be described thus: Selectivity ratio of EC50 for antiviral activity against multidrug-resistant HIV1 NL4-3 SLK19 infected in human TZM-bl cells to EC50 for antiviral activity against wild-type HIV1 NL4-3 infected in human TZM-bl cells. It is filed as functional.
The nature of assay [2]: Selectivity ratio of EC50 for antiviral activity against multidrug-resistant HIV1 NL4-3 VSL20 infected in human TZM-bl cells to EC50 for antiviral activity against wild-type HIV1 NL4-3 infected in human TZM-bl cells. In kind it is functional.
For assay [3], the target named is Protease (Human immunodeficiency virus 1, UniProt Q9YQ12, I84V). Briefly: Inhibition of HIV1 NL4-3 protease I84V mutant expressed in Escherichia coli TAP-106 cells using EDANS/DABCYL-labelled 10-amino acid containing natural MA/CA cleavage site as substrate preincubated for 1 hr followed by substrate addition and measured for 60 mins by FRET assay.
The test system of assay [4] is Human immunodeficiency virus 1. Briefly: Antiviral activity against wild-type HIV1 NL4-3 infected in human TZM-bl cells preincubated for 18 hrs followed by viral infection and measured after 48 hrs by luciferase reporter gene assay. In kind it is functional, organism-based. Particulars: Human immunodeficiency virus 1, NL4-3, TZM-bl.
The subject of assay [5] is Human immunodeficiency virus 1. Briefly: Antiviral activity against multidrug-resistant HIV1 NL4-3 VSL20 infected in human TZM-bl cells preincubated for 18 hrs followed by viral infection and measured after 48 hrs by luciferase reporter gene assay. In kind it is functional, organism-based. The settings on record: Human immunodeficiency virus 1, NL4-3 VSL20, TZM-bl. For orientation: In a reporter assay the amount or activity of a reporter protein is the signal.

Assay [6] has as its system Human immunodeficiency virus 1. As to the kind of experiment: Antiviral activity against multidrug-resistant HIV1 NL4-3 SLK19 infected in human TZM-bl cells preincubated for 18 hrs followed by viral infection and measured after 48 hrs by luciferase reporter gene assay. It is filed as functional, organism-based. Particulars: Human immunodeficiency virus 1, NL4-3 SLK19, TZM-bl.

Assay [7] is described as follows: Selectivity ratio of EC50 for antiviral activity against multidrug-resistant HIV1 NL4-3 KY24 infected in human TZM-bl cells to EC50 for antiviral activity against wild-type HIV1 NL4-3 infected in human TZM-bl cells. In kind it is functional.
Assay [8] relates to Human immunodeficiency virus 1. Briefly: Antiviral activity against multidrug-resistant HIV1 NL4-3 KY24 infected in human TZM-bl cells preincubated for 18 hrs followed by viral infection and measured after 48 hrs by luciferase reporter gene assay. Particulars: Human immunodeficiency virus 1, NL4-3 KY24, TZM-bl. It is filed as functional, organism-based.
Assay [9] deals with Protease (Human immunodeficiency virus 1, UniProt Q9YQ12, A71V/I50V). Briefly: Inhibition of HIV1 NL4-3 protease I50V/A71V mutant expressed in Escherichia coli TAP-106 cells using EDANS/DABCYL-labelled 10-amino acid containing natural MA/CA cleavage site as substrate preincubated for 1 hr followed by substrate addition and measured for 60 mins by FRET assay.
Assay [10] deals with Human immunodeficiency virus 1. Briefly: Potency index, ratio of darunavir EC50 to test compound EC50 for antiviral activity against multidrug-resistant HIV1 NL4-3 KY24 infected in human TZM-bl cells. In kind it is functional.

Protease (Human immunodeficiency virus 1, UniProt Q9YQ12, A71V/I50V), sequence (Q9YQ12 entry or part of it A71V/I50V): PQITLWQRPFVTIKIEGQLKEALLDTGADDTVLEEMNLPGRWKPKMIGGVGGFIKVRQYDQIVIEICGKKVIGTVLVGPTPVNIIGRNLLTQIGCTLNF
Protease (Human immunodeficiency virus 1, UniProt Q9YQ12, I84V), sequence (Q9YQ12 entry or part of it I84V): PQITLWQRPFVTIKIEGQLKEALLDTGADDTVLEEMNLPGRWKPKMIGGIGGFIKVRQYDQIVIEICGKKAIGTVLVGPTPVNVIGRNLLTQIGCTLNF

As for `CC[C@H](C)CN(C[C@@H](O)[C@H](Cc1ccccc1)NC(=O)O[C@H]1CO[C@H]2OCC[C@H]21)S(=O)(=O)c1ccc([C@H](C)O)cc1`, the “Ratio EC50” value turned out to be 11 in assay [1], 61 in assay [2] and 107 in [7]. The Ki is 0.111 nM in assay [3] and 0.093 nM in assay [9]. The EC50 in assay [4] is 4.6 nM; in [5], 281 nM; in [6], 49 nM; in [8], 490 nM.

In [3], `CC(C)CN(C[C@@H](O)[C@H](Cc1ccccc1)NC(=O)O[C@H]1CO[C@H]2OCC[C@H]21)S(=O)(=O)c1ccc([C@H](O)CO)cc1` yielded a Ki of 0.283 nM. Besides, in [4], the half-maximal effective concentration (EC50) was 189 nM.

As for `CCC(CC)CN(C[C@@H](O)[C@H](Cc1ccccc1)NC(=O)O[C@H]1CO[C@H]2OCC[C@H]21)S(=O)(=O)c1ccc(CO)cc1`, the “Ratio EC50” value in assay [1] is on record as 9; in assay [10], 2; in assay [2] it was 101; in [7], 118. Besides, the Ki worked out at 0.005 nM in [3] and 0.055 nM in assay [9]. Further, the EC50 in assay [4] amounted to 4.2 nM; in assay [5] it was 426 nM; in assay [6], 36 nM; in assay [8], 495 nM.

As to `CC[C@H](C)CN(C[C@@H](O)[C@H](Cc1ccccc1)NC(=O)O[C@H]1CO[C@H]2OCC[C@H]21)S(=O)(=O)c1ccc([C@@H](C)O)cc1`, the “Ratio EC50” value in [1] was 22; in assay [2] it was 69; in [7], 81. Also, the Ki in assay [3] turned out to be 0.095 nM; in assay [9], 0.132 nM. Also, the EC50 was 4.2 nM in assay [4], 291 nM in assay [5], 91 nM in [6] and 342 nM in assay [8].

On to `CC(C)CN(C[C@@H](O)[C@H](Cc1ccccc1)NC(=O)O[C@H]1CO[C@H]2OCC[C@H]21)S(=O)(=O)c1ccc([C@@H](O)CO)cc1`, for which the inhibitory constant (Ki) in [3] worked out at 0.098 nM; in assay [9], 0.09 nM. Also, the EC50 in assay [4] worked out at 176 nM.

With `CC(C)CN(C[C@@H](O)[C@H](Cc1ccccc1)NC(=O)O[C@H]1CO[C@H]2OCC[C@H]21)S(=O)(=O)c1ccc([C@H](C)O)cc1`, the concentration for a half-maximal effect (EC50) in [4] amounted to 4.7 nM; in assay [5], 117 nM; in assay [6] it was 31 nM; in [8], 352 nM.

On to `CC(C)CN(C[C@@H](O)[C@H](Cc1ccccc1)NC(=O)O[C@H]1CO[C@H]2OCC[C@H]21)S(=O)(=O)c1ccc([C@@H](C)O)cc1`, for which the 50% effective concentration (EC50) in assay [4] was 7.5 nM; in assay [5] it was 148 nM; in [6], 100 nM; in [8], 360 nM.

In the case of `CC[C@H](C)CN(C[C@@H](O)[C@H](Cc1ccccc1)NC(=O)O[C@H]1CO[C@H]2OCC[C@H]21)S(=O)(=O)c1ccc([C@@H](O)CO)cc1`, affinity in [3] was put at a Ki of 0.216 nM. In addition, the EC50 in assay [4] came to 80 nM.

`CCC(CC)CN(C[C@@H](O)[C@H](Cc1ccccc1)NC(=O)O[C@H]1CO[C@H]2OCC[C@H]21)S(=O)(=O)c1ccc([C@H](O)CO)cc1`: the “Ratio EC50” value in assay [1] is 4; in assay [2], 10; in [7], 28. Moreover, the values for the Ki in [3] and in assay [9] were 0.134 nM and 0.22 nM, respectively. Besides, the EC50 stood at 41 nM in [4], 417 nM in assay [5], 151 nM in assay [6] and 1150 nM in assay [8].

As for `CC[C@H](C)CN(C[C@@H](O)[C@H](Cc1ccccc1)NC(=O)O[C@H]1CO[C@H]2OCC[C@H]21)S(=O)(=O)c1ccc(CO)cc1`, the “Ratio EC50” value in assay [1] came to 9; in assay [2], 54; in [7] it was 191. Moreover, the inhibition constant (Ki) in assay [3] is 0.01 nM; in assay [9], 0.08 nM. Also, the EC50 in [4] was 5.7 nM; in assay [5], 310 nM; in assay [6], 52 nM; in [8] it was 1090 nM.

As to `CC[C@H](C)CN(C[C@@H](O)[C@H](Cc1ccccc1)NC(=O)O[C@H]1CO[C@H]2OCC[C@H]21)S(=O)(=O)c1ccc([C@H](O)CO)cc1`, the Ki in [3] was determined as 0.504 nM. For the same compound, the EC50 in [4] is 92 nM.

Turning to `CCC(CC)CN(C[C@@H](O)[C@H](Cc1ccccc1)NC(=O)O[C@H]1CO[C@H]2OCC[C@H]21)S(=O)(=O)c1ccc([C@@H](O)CO)cc1`, the entries for the “Ratio EC50” value in [1], in [2] and in [7] were 3, 3 and 13, respectively. In addition, the Ki in assay [3] is 0.057 nM; in assay [9] it was 0.074 nM. The EC50 was 40 nM in assay [4], 100 nM in assay [5], 116 nM in assay [6] and 507 nM in [8].

With `CCC(CC)CN(C[C@@H](O)[C@H](Cc1ccccc1)NC(=O)O[C@H]1CO[C@H]2OCC[C@H]21)S(=O)(=O)c1ccc([C@H](C)O)cc1`, the half-maximal effective concentration (EC50) in assay [4] came to 4.4 nM; in [5], 112 nM; in assay [6] it was 26 nM; in [8], 196 nM.

For `CCC(CC)CN(C[C@@H](O)[C@H](Cc1ccccc1)NC(=O)O[C@H]1CO[C@H]2OCC[C@H]21)S(=O)(=O)c1ccc([C@@H](C)O)cc1`, the EC50 in assay [4] was 5.1 nM; in assay [5], 420 nM; in assay [6], 32 nM; in assay [8], 345 nM.

By Ki is commonly meant a measure of affinity in units of concentration, obtained from inhibition or displacement. High values mean a looser hold on the target, low ones a stronger hold on the target. A word on the EC50: it is the concentration needed to bring the measured effect to its halfway point. A low value points to a more potent agent.
